Data: ChEMBL document CHEMBL1143395, “Cloning, expression, post-translational modifications and inhibition studies on the latest mammalian carbonic anhydrase isoform, CA XV” (J Med Chem, 2009)

What follows are compounds tested against T1, Carbonic anhydrase 15 (Mus musculus, UniProt Q99N23).
T1 sequence (Q99N23 whole entry): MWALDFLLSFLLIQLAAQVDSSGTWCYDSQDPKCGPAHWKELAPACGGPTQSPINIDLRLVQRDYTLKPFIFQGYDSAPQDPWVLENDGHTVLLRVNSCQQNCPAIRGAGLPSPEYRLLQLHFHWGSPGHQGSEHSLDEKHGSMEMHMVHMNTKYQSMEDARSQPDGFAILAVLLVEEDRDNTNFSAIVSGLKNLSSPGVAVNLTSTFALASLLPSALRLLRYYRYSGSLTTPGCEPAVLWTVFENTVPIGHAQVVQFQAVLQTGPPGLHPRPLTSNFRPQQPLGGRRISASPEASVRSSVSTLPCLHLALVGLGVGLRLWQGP

| SMILES | Ki [nM] |
| --- | --- |
| NNc1ccc(S(N)(=O)=O)cc1 | 9540 |
| Nc1ccc(S(=O)(=O)NCCc2ccc(S(N)(=O)=O)cc2)cc1 | 63 |
| Nc1ccc(S(N)(=O)=O)cc1 [SULFANILAMIDE] | 9610 |
| NS(=O)(=O)c1nnc(NS(=O)(=O)c2ccccc2)s1 [BENZOLAMIDE] | 70 |
| Nc1nnc(S(N)(=O)=O)s1 | 48 |
| Cn1nc(S(N)(=O)=O)sc1=N | 49 |
| NNc1ccccc1S(N)(=O)=O | 6900 |
| NS(=O)(=O)c1ccc(C(=O)O)cc1 [CARZENIDE] | 4650 |
| Nc1ccc(S(N)(=O)=O)cc1F | 79 |
| Nc1cc(Cl)c(S(N)(=O)=O)cc1S(N)(=O)=O | 757 |
| Nc1ccc(S(=O)(=O)NCc2ccc(S(N)(=O)=O)cc2)cc1 | 49 |
| NS(=O)(=O)Cc1noc2ccccc12 [ZONISAMIDE] | 634 |
| NS(=O)(=O)c1ccc(CCO)cc1 | 4660 |
| NS(=O)(=O)c1nc2ccc(O)cc2s1 | 64 |
| Nc1ccc(S(N)(=O)=O)cc1Cl | 62 |
| CCN[C@H]1CN(CCCOC)S(=O)(=O)c2sc(S(N)(=O)=O)cc21 [BRINZOLAMIDE] | 61 |
| NS(=O)(=O)c1nnc(-c2ccccc2Cl)s1 | 60 |
| Nc1ccccc1S(N)(=O)=O | 8810 |
| Nc1nccc(Nc2ccc(S(N)(=O)=O)cc2)n1 | 67 |
| CC(=O)/N=c1/sc(S(N)(=O)=O)nn1C [METHAZOLAMIDE] | 65 |
| NS(=O)(=O)c1cc(Cl)c(Cl)c(S(N)(=O)=O)c1 [DICHLORPHENAMIDE] | 95 |
| NS(=O)(=O)c1ccc(CO)cc1 | 4560 |
| Cc1ccc(S(N)(=O)=O)cc1 [P-TOLUENESULFONAMIDE] | 7990 |
| Nc1ccc(S(N)(=O)=O)cc1Br | 83 |
| CC1(C)O[C@@H]2[C@@H](CO[C@@]3(COS(N)(=O)=O)OC(C)(C)O[C@@H]23)O1 [TOPIRAMATE] | 78 |
| NCc1ccc(S(N)(=O)=O)cc1 [MAFENIDE] | 970 |
| CCOc1ccc2nc(S(N)(=O)=O)sc2c1 [ETHOXZOLAMIDE] | 58 |
| NS(=O)(=O)c1ccc(S(=O)(=O)Nc2cccc3c(Cl)c[nH]c23)cc1 | 72 |

Each compound was assayed against Carbonic anhydrase 6 (Homo sapiens, UniProt P23280).
Sequence of Carbonic anhydrase 6 (P23280 whole entry): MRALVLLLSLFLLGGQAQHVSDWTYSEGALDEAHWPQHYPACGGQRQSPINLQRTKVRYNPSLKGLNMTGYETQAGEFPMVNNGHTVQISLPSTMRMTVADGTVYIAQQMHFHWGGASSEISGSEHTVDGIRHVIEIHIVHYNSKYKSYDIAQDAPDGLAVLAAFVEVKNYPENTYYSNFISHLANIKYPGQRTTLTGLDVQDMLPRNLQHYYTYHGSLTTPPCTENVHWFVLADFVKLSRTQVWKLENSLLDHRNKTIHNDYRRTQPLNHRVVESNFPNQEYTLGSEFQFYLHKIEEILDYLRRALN

| SMILES | Ki [nM] |
| --- | --- |
| Cc1ccc(-c2cc(C(F)(F)F)nn2-c2ccc(S(N)(=O)=O)cc2)cc1 [CELECOXIB] | 94 |
